Source: ChEMBL document CHEMBL2074322, “Bidirectional transport of rhodamine 123 and Hoechst 33342, fluorescence probes of the binding sites on P-glycoprotein, across MDCK-MDR1 cell monolayers” (J Pharm Sci, 2004)

How the values were obtained:
Type in all cases: functional, cell-based
Details in all cases: dog
[1] = target: T1, ATP-dependent translocase ABCB1 (Homo sapiens, UniProt P08183); test: TP_TRANSPORTER: transepithelial transport of Rhodamine 123 in the presence of Daunorubicin (Daunomycin) at a concentration of 80uM in MDR1-expressing MDCK cells
[2] = target: T1, ATP-dependent translocase ABCB1; test: TP_TRANSPORTER: transepithelial transport of Hoechst 33342 in the presence of Daunorubicin (Daunomycin) at a concentration of 80uM in MDR1-expressing MDCK cells
[3] = target: T1, ATP-dependent translocase ABCB1; test: TP_TRANSPORTER: transepithelial transport in MDR1-expressing MDCK cells
[4] = target: T1, ATP-dependent translocase ABCB1; test: TP_TRANSPORTER: transepithelial transport of Rhodamine 123 in the presence of Hoechst 33342 at a concentration of 5uM in MDR1-expressing MDCK cells

T1 sequence (P08183 whole entry): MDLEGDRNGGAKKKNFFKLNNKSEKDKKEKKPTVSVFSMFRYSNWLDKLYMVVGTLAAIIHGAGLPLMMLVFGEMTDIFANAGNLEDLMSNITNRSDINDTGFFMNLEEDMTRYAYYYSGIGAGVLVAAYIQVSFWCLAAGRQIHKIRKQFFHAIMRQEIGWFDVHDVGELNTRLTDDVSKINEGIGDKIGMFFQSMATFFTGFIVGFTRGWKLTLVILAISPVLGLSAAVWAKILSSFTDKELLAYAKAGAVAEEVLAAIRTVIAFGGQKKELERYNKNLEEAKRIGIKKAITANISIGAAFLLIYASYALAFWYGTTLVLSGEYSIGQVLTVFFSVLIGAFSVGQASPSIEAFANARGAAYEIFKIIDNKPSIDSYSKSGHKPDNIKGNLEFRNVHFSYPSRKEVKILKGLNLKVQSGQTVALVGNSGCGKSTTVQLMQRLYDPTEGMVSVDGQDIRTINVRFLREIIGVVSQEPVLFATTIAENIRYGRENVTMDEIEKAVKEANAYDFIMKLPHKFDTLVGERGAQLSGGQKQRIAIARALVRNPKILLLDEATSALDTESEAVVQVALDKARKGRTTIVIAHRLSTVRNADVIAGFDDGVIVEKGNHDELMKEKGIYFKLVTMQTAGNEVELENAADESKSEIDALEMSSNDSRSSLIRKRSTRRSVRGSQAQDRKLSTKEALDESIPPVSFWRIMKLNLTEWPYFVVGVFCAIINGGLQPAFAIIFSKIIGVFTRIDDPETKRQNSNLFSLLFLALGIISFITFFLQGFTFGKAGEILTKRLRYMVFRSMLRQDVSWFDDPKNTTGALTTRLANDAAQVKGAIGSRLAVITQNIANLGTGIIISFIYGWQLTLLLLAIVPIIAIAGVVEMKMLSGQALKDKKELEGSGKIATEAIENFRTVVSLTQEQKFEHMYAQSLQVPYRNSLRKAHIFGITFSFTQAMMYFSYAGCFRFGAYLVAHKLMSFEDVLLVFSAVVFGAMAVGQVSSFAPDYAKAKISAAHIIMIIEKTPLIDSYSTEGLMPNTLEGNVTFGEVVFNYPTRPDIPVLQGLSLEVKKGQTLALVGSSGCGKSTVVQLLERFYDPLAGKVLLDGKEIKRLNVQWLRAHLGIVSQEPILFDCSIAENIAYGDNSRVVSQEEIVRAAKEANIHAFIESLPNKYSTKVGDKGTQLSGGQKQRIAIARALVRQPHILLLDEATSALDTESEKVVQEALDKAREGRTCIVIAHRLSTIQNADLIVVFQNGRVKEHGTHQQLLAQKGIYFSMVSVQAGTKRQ

SMILES	Activity [1]	Activity [2]	Activity [3]	Activity [4]
COc1cccc2c1C(=O)c1c(O)c3c(c(O)c1C2=O)C[C@@](O)(C(C)=O)C[C@@H]3O[C@H]1C[C@H](N)[C@H](O)[C@H](C)O1 [DAUNORUBICIN]	inhibitor [+]	inhibitor [+]	–	–
COC(=O)c1ccccc1-c1c2ccc(=N)cc-2oc2cc(N)ccc12.Cl [RHODAMINE123]	–	–	substrate [+]	–
CCOc1ccc(-c2nc3cc(-c4nc5cc(N6CCN(C)CC6)ccc5[nH]4)ccc3[nH]2)cc1	–	–	substrate [+]	inhibitor [+]
